Assays:
MRC-5 = test: MTT assay in non-cancerous fibroblasts, 72 h; format: cell-based; conditions: non-cancerous human fibroblasts, 72 h incubation, mean ± SD
Experimental: Cells were treated with the tested compounds in a final volume of 200 μL/well. […] Calbiochem, Darmstadt, Germany) was added, and the cells were incubated for an additional 2–4 h. The medium was removed, and the insoluble formazan product was dissolved in 100 μL/well DMSO. […] The read values were converted to the percentage of control. […] All experiments were made in triplicate.

[1] = NMR reduction studies with GSH or ascorbic acid; format: physicochemical; conditions: up to 10 equiv of reducing agent, 48 h, 37 °C, PBS/D2O, 1H NMR
Experimental: Thus, all compounds were >95% pure by NMR and HPLC analyses. NMR reduction studies were also undertaken where excess equivalents of reducing agents GSH or ascorbic acid were added to the sample before undertaking multiple NMR measurements over a 48 h period at 37 °C. These reducing agents were chosen to mimic the reducing capacity of the […] environment of the blood and tissue. […] However, once inside the cell, reactions with intracellular components might be induced, rendering the prodrug biodegradable. […] Therefore, the complex is unlikely to be reduced in the bloodstream. Monitoring the Pt(IV) peak, falling as the Pt(II) peak rises, would be ideal for further proof of the stability of these complexes, but the Pt(IV) resonance falls outside the detectable range of our instrument.
One equivalent of the complex was dissolved in 500 μL of PBS using D2O for a ^1H NMR experiment performed on a Bruker AVANCE 400 MHz NMR spectrometer, with 50 dummy scans (approx. 5 min) to allow the sample to reach 37 °C before 128 scans were taken. The sample was removed, and the reducing agent was quickly added. Then the NMR measurement was taken again (50 dummy scans followed by 128 scans). The NMR was subsequently set up to measure one 128-scan experiment after another for 4 h, at which point the sample was removed, stored, and scanned again after 24 and 48 h. […]

SMILES	IC50 (MRC-5) [nM]	stability towards reduction by GSH or ascorbic acid [1]
Cc1c(C)c2c3c4c1=CC=C[N]4[Pt]([Cl])[N]3C=CC=2.NCCNC(=O)Cc1ccccc1Nc1c(Cl)cccc1Cl.N[C@H]1CCCC[C@@H]1N [complex 3, Pt(IV)56MESSenDCFCl]	700 ± 100	–
Cc1c(C)c2c3c4c1=CC=C[N]4[Pt][N]3C=CC=2.NCCNC(=O)Cc1ccccc1Nc1c(Cl)cccc1Cl.NCCNC(=O)Cc1ccccc1Nc1c(Cl)cccc1Cl.N[C@H]1CCCC[C@@H]1N [complex 4, Pt^IV56MeSS(DCF)2]	320 ± 80	the compound had not been reduced
